What was measured:
Type in all cases: in vivo, human
[1] = system: sweat apparatus (glands or ducts) of patients with idiopathic hypohidrosis; assay: Injection of Carbachol to locate the pathology in idiopathic hypohidrosis (induction of sweating)
[2] = system: patients with idiopathic hypohidrosis; assay: Long term retrospective assessment of 28 patients with idiopathic hypohidrosis, 20 treated with retinoids
Description: A retrospective analysis on patients with isolated hypohidrosis who attended a neuro-dermatology clinic over a 5.75-year period was conducted. All patients routinely underwent standardized exercising and whole-body starch-iodine test, followed by non-invasive HD-OCT skin imaging, and their treatment history was analysed.
28 patients with idiopathic hypohidrosis were included in the study, 14 of whom were affected in a generalised manner (with 70% and more of body surface affected) and 14 in a partial manner. 14 of the 28 patients were those which were the subject of Example 1, and 14 patients were new.

[3] = system: patients with idiopathic hypohidrosis; assay: Treatment of fourteen patients with idiopathic hypohidrosis with oral retinoids (exercise, starch-iodine sweat test, HD-OCT); settings: for patients who responded and were successfully treated: generalised hypohidrosis, three with acitretin (one did not respond)
Description: Fourteen patients presenting with idiopathic hypohidrosis underwent monitored exercising on a stationary bicycle for 20 minutes. Their temperature and heart rate were repeatedly measured during the exercise. Subsequently, using a spray gun, starch-iodine powder was sprayed onto the whole body of the patient and the powder coats onto the skin (FIG. 1). The coat of powder on body areas with sweating turned purple, while the powder in areas without sweat remained brown (FIG. 2). This allows the body surface area of anhidrosis to be assessed. Thereafter, the patient rinsed off the powder, which washed off easily with water.
The patients' skin was subsequently imaged using high-definition optical coherence tomography (HD-OCT) non-invasive skin imaging (Skintell, Agfa, Belgium). HD-OCT uses an infrared (1000-1700 nm), interferometric and time-domain imaging technique. Instead of a single pin diode light detector, it uses a two-dimensional imaging array to allow for simultaneous cross-sectional and en face images acquisition. A high lateral resolution of 3 μm is ensured using a technique called continuous focus tracking. The capture of a 3D image (containing 57 million voxels) takes 2-3 seconds and the information acquired can subsequently be digitally analysed.
The fourteen patients suffering from idiopathic hypohidrosis were offered treatment according to the invention.
All of the treated patients were started on an oral dose of isotretinoin or acitretin of between 5 and 20 mg once daily for at least six weeks. If necessary, this dose was adjusted, whether increased because the initial dose was ineffective, or decreased to reduce the expected side effects associated with oral retinoids. All patients responded to a dose of between 10 and 30 mg once daily. This dose was further adjusted as required until symptoms of idiopathic hypohidrosis had resolved. Administration of retinoids was continued to prevent reoccurrence of symptoms.

[4] = five treated with isotretinoin, oral once daily
[5] = one patient successfully treated with isotretinoin

Row | Structure (SMILES) | induction of sweating ([1]; injection at regions where patients could sweat) | induction of sweating ([1]; injection in areas where patients cannot sweat) | patients recovered well enough to return to their pre-morbid sporting activities ([2]; seventeen patients (7 generalised and 10 partial), oral) | patients who responded and were successfully treated [3, 4] | HD-OCT imaging of lesions after treatment [3, 5] | sweat test after treatment [3, 5] | patients who responded to treatment and were successfully treated ([3]; partial hypohidrosis, five treated with isotretinoin, oral once daily) | patients recovered ([2]; of three patients treated, one did not respond)
1 | C[N+](C)(C)CCOC(N)=O [Carbachol] | induced sweating | could not do so |  |  |  |  |  | 
2 | CC1=C(/C=C/C(C)=C/C=C/C(C)=C\C(=O)O)C(C)(C)CCC1 [isotretinoin, 13-cis-retinoic acid] |  |  | 100% | All five | no longer visible | normalised extent of sweating | All five | 
3 | COc1cc(C)c(/C=C/C(C)=C/C=C/C(C)=C/C(=O)O)c(C)c1C [acitretin] |  |  |  | Two of the three |  |  |  | 2 patients

— patent US12514840B2, “Treatment of idiopathic hypohidrosis” (NATIONAL SKIN CENTRE (SINGAPORE) PTE LTD, priority 2019, dated 2026)
